Measurements published in patent publication US4555572A, “Pyrazolo[3,4,5-kl]acridine compositions and methods for their production and use” (Warner-Lambert Company, priority 1984, dated 1985).
pIC50: −log10 of the molar value. Structures can show the parent of a compound that is named as a salt. Where two headings read alike, the source gives them in different places.

Columns and labels:
L1210 cells = test: PDC test, L1210 cell growth; assay type: cell-based, murine; conditions: Mus musculus, read-out: PDC ID50
Procedure: (c) Another test protocol is the PDC test. L1210 cells, a murine leukemia cell line, were grown in RPMI 1640 supplemented with 10% fetal bovine serum and genamicin (50 μg/ml). Drug dilutions were prepared in the appropriate solvent and 20 μl of each dilution were added to 24-well Linbro tissue culture plates followed by the addition of 2.0 ml of cell suspension containing 3×10^4 cells per ml. Solvent and medium controls were included in each test. After incubation at 37° C. for three days in 5% CO2 in air, the contents of each well were removed and the cells counted in a ZBI Coulter counter. Per cent growth was calculated relative to the controls and the levels of drug activity were expressed as ID50 in terms of molarity (M).

Alcaligenes viscolactis = test: in vitro antibacterial (ABMF) microdilution susceptibility test; assay type: cell-based; conditions: read-out: ABMF Test M.I.C. A. visc.
From the text: (§1) (d) Still another test protocol is the in vitro antibacterial (ABMF) test which is a recognized standard microdilution susceptibility procedure in Mueller-Hinton broth against gram-positive and gram-negative bacterial test organisms. The procedure is a modification of a state-of-the-art procedure reported in Manual of Clinical Microbiology, Lennette, E. H., ed., by Barry, A. L. and C. Thornsberry at pages 463-474 and by Gavan, T. L. and A. L. Barry at pages 459-462, American Society for Microbiology, Washington, 1980.
(§2) In the test, a given bacterial culture is used to inoculate individaul test wells of microdilution trays containing growth medium and test compound, the latter in a microdilution series: 1000, 333, 111, 37, 12, 4, 1.4, and 0.46 micrograms per milliliter. […] For convenience, values are reported for Escherichia coli, Branhamella catarrhalis, Alcaligenes viscolactis, Streptococcus pneumoniae, and Bacillus cereus

Branhamella catarrhalis = test: as above; assay type: cell-based; conditions: Moraxella catarrhalis, read-out: ABMF Test M.I.C. B. cata.
From the text: as §1, §2

Streptococcus pneumoniae = test: as above; assay type: cell-based; conditions: read-out: ABMF Test M.I.C. S. pneu.
From the text: as §1, §2

Bacillus cereus = test: as above; assay type: cell-based; conditions: read-out: ABMF Test M.I.C. B. cere.
From the text: as §1, §2

Escherichia coli = test: as above; assay type: cell-based; conditions: read-out: ABMF Test M.I.C. E. coli
From the text: as §1, §2

[1] = test system: lymphocytic leukemia P388; test: in vivo lymphocytic leukemia P388 test; parameters: species or system CD2 F1 mice; conditions: Mus musculus, P388, ip, 120 h
Procedure: Another test protocol is the in vivo lymphocytic leukemia P388 test. The animals used are either male or female CD2 F1 mice, six or seven animals per test group. The tumor transplant is by intraperitoneal injection of dilute ascitic fluid containing cells of lymphocytic leukemia P388. The test compounds are administered intraperitoneally once daily for five consecutive days at various doses following tumor inoculation. The animals are weighed and survivors are recorded on a regular basis for 30 days. A compound is designated "toxic" if, at a given dose, all animals died prior to four days after the first injection of drug. A ratio of survival time for treated (T)/control (C) animals is calculated. A criterion for efficacy is a ratio T/C times 100 greater than or equal to 125. See Cancer Chemotherapy Reports, Part 3, 3, 1 (1972) for a comprehensive discussion of the protocol.

HCT-8 cells = test: in vitro proliferating human colon adenocarcinoma (HCA) cell screen, HCT-8; assay type: cell-based
Procedure: (a) One test protocol is the in vitro proliferating human colon adenocarcinoma (HCA) cell screen. In this test, HCT-8 cells (HCA cell line received from Yale University) are trypsinized using trypsin-EDTA. A single cell suspension is achieved by passing the cells through a 26 gauge needle with a 20-cc syringe. A cell suspension is prepared using RPMI 1640+10% FCS+50 μg/ml gentamicin sulfate with a cell concentration is approximately 30,000 cells/ml. The cell suspension is dispensed in Linbro 24-well plates; 1 ml/well. The plates are incubated for approximately 48 hours at 37° C. in a 5% CO2 atmosphere. At this time test compounds are added in the appropriate concentration. Five μl of the 200 μg/ml stock solution is added to each well in a primary test. […] of the appropriate dilution is added to each well for a titration test. The plates are reincubated an additional 60 to 65 hours at 37° C. in a 5% CO 2 atmosphere. The cells are lysed using a mix of cationic surfactant, glacial acetic acid, and sodium chloride. Two ml of the lysed cell suspension from each well is added to 8 ml of diluent. The number of nuclei is determined using a Coulter counter (ZBI model), and a percent growth for each drug concentration is calculated. From this, and ID50 (molar concentration of compound that results in 50% inhibition of growth) is determined.

[2] = Mueller-Hinton broth, 37° C., 16-24 hours
[3] = 1.56 mg/kg, intraperitoneally once daily for five days, read-out: P388 in vivo T/C × 100
[4] = 3.12 mg/kg, intraperitoneally once daily for five days, read-out: P388 in vivo T/C × 100
[5] = 6.25 mg/kg, intraperitoneally once daily for five days, read-out: P388 in vivo T/C × 100
[6] = HCT-8 cells, 60 to 65 hours, ED50, read-out: HCA ED50 Avg.

Q: `CCN(CC)CCn1nc2c3c(c([N+](=O)[O-])cc([N+](=O)[O-])c31)Nc1ccc(OCc3ccccc3)cc1-2` [Example 52, N,N-Diethyl-3,5-dinitro-9-(phenylmethoxy)pyrazolo [3,4,5-kl]-2(6H)-ethanamine, methanesulfonate, hemihydrate] was tested. Which pIC50 (L1210 cells; L1210, 72 h) did it give?
A: 6.12

Q: How did the pIC50 (L1210 cells; 72 h, L1210 cells, three days) turn out when `CCN(CC)CCn1nc2c3c(c([N+](=O)[O-])ccc31)Nc1ccc(OC(=O)c3ccccc3)cc1-2` [Example 31, 2-[2-(Diethylamino)ethyl]-2,6-dihydro-5-nitropyrazolo [3,4,5-kl]acridin-9-ol, benzoate (ester), methanesulfonate (1:1) (salt), monohydrate] was run?
A: 8.52

Q: With `CCN(CC)CCn1nc2c3c(c([N+](=O)[O-])ccc31)Nc1ccc(OCc3ccc(OC)cc3)cc1-2` [Example 22, N,N-Diethyl-9-[(4-methoxyphenyl)methoxy]-5-nitropyrazolo[3,4,5-kl]acridine-2(6H)-ethanamine, methanesulfonate (salt) (1:1)] as the molecule, how does the pIC50 (L1210 cells; 72 h, L1210 cells, three days) read?
A: 6.09

Q: Which results are given for `CCN(CC)CCn1nc2c3c(c([N+](=O)[O-])cc([N+](=O)[O-])c31)Nc1ccc(OCc3ccc(OC)cc3)cc1-2.CS(=O)(=O)O` [Example 53, N,N-Diethyl-9-[(4-methoxyphenyl)methoxy]-3,5-dinitropyrazolo[3,4,5-kl]acridine-2(6H)-ethanamine, methanesulfonate (1:1)]?
A: MIC (Alcaligenes viscolactis): < 0.46 µg/mL; MIC (Branhamella catarrhalis): < 0.46 µg/mL; MIC (Streptococcus pneumoniae): < 0.46 µg/mL; MIC (Bacillus cereus): < 0.46 µg/mL; MIC (Escherichia coli): < 0.46 µg/mL; pIC50 (L1210 cells; L1210, 72 h): 8.17

Q: Which MIC (Alcaligenes viscolactis; [2]) does the source give for `Cc1ccc2c(c1)-c1nn(CCNCCO)c3ccc([N+](=O)[O-])c(c13)N2.Cl` [Example 42, 2-[[2-(9-Methyl-5-nitropyrazolo[3,4,5-kl]acridin-2(6H)-yl)ethyl]amino]ethanol, monohydrochloride] here?
A: < 0.46 µg/mL

Q: And the MIC (Branhamella catarrhalis; [2])?
A: < 0.46 µg/mL

Q: And the MIC (Streptococcus pneumoniae; [2])?
A: < 0.46 µg/mL

Q: And the MIC (Bacillus cereus; [2])?
A: < 0.46 µg/mL

Q: What about the MIC (Escherichia coli; [2]) of the same molecule?
A: < 0.46 µg/mL

Q: What about the pIC50 (L1210 cells; 72 h, L1210 cells, three days) of the same molecule?
A: 6.23

Q: For `CCOc1ccc2c(c1)-c1nn(CCCN(C)C)c3ccc([N+](=O)[O-])c(c13)N2.CS(=O)(=O)O` [Example 46, 9-Ethoxy-N,N-dimethyl-5-nitropyrazolo[3,4,5-kl]acridine-2(6H)-propanamine, methanesulfonate (1:1)], which MIC (Alcaligenes viscolactis; [2]) is on record?
A: < 0.46 µg/mL

Q: What about the MIC (Branhamella catarrhalis; [2]) of the same molecule?
A: 1.4 µg/mL

Q: And the MIC (Streptococcus pneumoniae; [2])?
A: 4.1 µg/mL

Q: And the MIC (Bacillus cereus; [2])?
A: 4.1 µg/mL

Q: And the MIC (Escherichia coli; [2])?
A: 12.3 µg/mL

Q: And the response vs control in vivo at 1.56 mg/kg [1, 3]?
A: 132%

Q: What about the response vs control in vivo at 3.12 mg/kg [1, 4] of the same molecule?
A: 137%

Q: And the response vs control in vivo at 6.25 mg/kg [1, 5]?
A: 169%

Q: And the response vs control in vivo at 12.5 mg/kg ([1]; 12.5 mg/kg, intraperitoneally once daily for five days, read-out: P388 in vivo T/C × 100)?
A: 232%

Q: And the pIC50 (HCT-8 cells; [6])?
A: 7.26

Q: Which results are given for `CCOc1ccc2c(c1)-c1nn(CCN(CC)CC)c3c([N+](=O)[O-])cc([N+](=O)[O-])c(c13)N2.CS(=O)(=O)O.O` [Example 51, 9-Ethoxy-N,N-diethyl-3,5-dinitropyrazolo[3,4,5-kl]acridine-2(6H)-ethanamine, methanesulfonate, hydrate]?
A: MIC (Alcaligenes viscolactis): < 0.46 µg/mL; MIC (Branhamella catarrhalis): 333 µg/mL; MIC (Streptococcus pneumoniae): 111 µg/mL; MIC (Bacillus cereus): 333 µg/mL; MIC (Escherichia coli): > 1000 µg/mL; pIC50 (L1210 cells; L1210, 72 h): 6.42

Q: `COc1ccc2c(c1)-c1nn(CCCN(C)C)c3c([N+](=O)[O-])cc([N+](=O)[O-])c(c13)N2.CS(=O)(=O)O` [Example 55, N,N-Dimethyl-3,5-dinitro-9-methoxypyrazolo[3,4,5-kl]acridine-2(6H)-propanamine, methanesulfonate (1:1)] was tested. Which MIC (Alcaligenes viscolactis) did it give?
A: < 0.46 µg/mL

Q: What about the MIC (Branhamella catarrhalis) of the same molecule?
A: < 0.46 µg/mL

Q: What about the MIC (Streptococcus pneumoniae) of the same molecule?
A: < 0.46 µg/mL

Q: And the MIC (Bacillus cereus)?
A: < 0.46 µg/mL

Q: And the MIC (Escherichia coli)?
A: < 0.46 µg/mL

Q: What about the pIC50 (L1210 cells; L1210, 72 h) of the same molecule?
A: 6.66

Q: Which results are given for `CCCCCCCC(=O)Oc1ccc2c(c1)-c1nn(CCN(CC)CC)c3ccc([N+](=O)[O-])c(c13)N2` [Example 30, Octanoic acid,[2-[2-(diethylamino)ethyl]-2,6-dihydro-5-nitropyrazolo[3,4,5-kl]acridin-9-yl]ester, methanesulfonate (1:1), hemihydrate]?
A: MIC (Alcaligenes viscolactis; [2]): < 0.46 µg/mL; MIC (Branhamella catarrhalis; [2]): 12.3 µg/mL; MIC (Streptococcus pneumoniae; [2]): < 0.46 µg/mL; MIC (Bacillus cereus; [2]): 37 µg/mL; MIC (Escherichia coli; [2]): 37 µg/mL; pIC50 (L1210 cells; 72 h, L1210 cells, three days): 8.37

Q: How did the MIC (Alcaligenes viscolactis) turn out when `CCN(CC)CCn1nc2c3c(c([N+](=O)[O-])ccc31)Nc1ccc(O[Si](C)(C)C(C)(C)C)cc1-2` [Example 26, 9-[[(1,1-Dimethylethyl)dimethylsilyl]oxy]-N,N-diethyl-5-nitropyrazolo[3,4,5-kl]acridine-2(6H)-ethanamine, methanesulfonate (salt) (1:1)] was run?
A: 37 µg/mL

Q: And the MIC (Branhamella catarrhalis)?
A: > 1000 µg/mL

Q: And the MIC (Streptococcus pneumoniae)?
A: > 1000 µg/mL

Q: What about the MIC (Bacillus cereus) of the same molecule?
A: > 1000 µg/mL

Q: What about the MIC (Escherichia coli) of the same molecule?
A: > 1000 µg/mL

Q: What about the response vs control in vivo at 1.56 mg/kg ([1]; read-out: P388 in vivo T/C × 100, 1.56 mg/kg, intraperitoneally once daily for five days) of the same molecule?
A: 154%

Q: And the response vs control in vivo at 3.12 mg/kg ([1]; read-out: P388 in vivo T/C × 100, 3.12 mg/kg, intraperitoneally once daily for five days)?
A: 158%

Q: And the response vs control in vivo at 6.25 mg/kg ([1]; read-out: P388 in vivo T/C × 100, 6.25 mg/kg, intraperitoneally once daily for five days)?
A: 211%

Q: What about the pIC50 (HCT-8 cells; HCT-8, read-out: HCA ED50 Avg.) of the same molecule?
A: 8.19

Q: `CCN(CC)CCn1nc2c3c(c([N+](=O)[O-])ccc31)Nc1ccc(OC(C)=O)cc1-2` [Example 27, 2-[2-(Diethylamino)ethyl]-2,6-dihydro-5-nitropyrazolo[3,4,5-kl]acridin-9-ol, acetate (ester), methanesulfonate (salt) (1:1)] was tested. Which MIC (Alcaligenes viscolactis; [2]) did it give?
A: 0.46 µg/mL

Q: What about the MIC (Branhamella catarrhalis; [2]) of the same molecule?
A: 0.46 µg/mL

Q: And the MIC (Streptococcus pneumoniae; [2])?
A: 1.4 µg/mL

Q: What about the MIC (Bacillus cereus; [2]) of the same molecule?
A: 4.1 µg/mL

Q: And the MIC (Escherichia coli; [2])?
A: 12.3 µg/mL

Q: And the response vs control in vivo at 1.56 mg/kg [1, 3]?
A: 158%

Q: What about the response vs control in vivo at 3.12 mg/kg [1, 4] of the same molecule?
A: 218%

Q: And the response vs control in vivo at 6.25 mg/kg [1, 5]?
A: 165%

Q: And the pIC50 (HCT-8 cells; [6])?
A: 8.28

Q: For `CCN(CC)CCn1nc2c3c(c([N+](=O)[O-])ccc31)Nc1ccc(OC(=O)C(C)(C)C)cc1-2` [Example 28, 2-[2-(Diethylamino)ethyl]-2,6-dihydro-5-nitropyrazolo[3,4,5-kl]acridin-9-ol, 2,2-dimethylpropanoate (ester), methanesulfonate (salt) (1:1)], which response vs control in vivo at 3.12 mg/kg [1, 4] is on record?
A: 221%

Q: And the response vs control in vivo at 6.25 mg/kg [1, 5]?
A: 223%

Q: And the pIC50 (L1210 cells; 72 h, L1210 cells, three days)?
A: 8.14
